Four compounds from US20090258849A1, “NITROOXY DERIVATIVES OF GLUCOCORTICOIDS” (Nicox S.A., priority 2005, published 2009) can be followed below.

Test [1] relates to irritant contact dermatitis induced by benzalkonium chloride. Nature of the test: Contact dermatitis induced by benzalkonium in mice (ear edema). On the set-up: Ear edema (left ears) value: unit not given here. In kind it is in vivo. Here is the method:
Irritant contact dermatitis was induced by applying 5% benzalkonium chloride (100 μl per site, dissolved in olive oil:acetone, 1:5 v/v) on the dorsal aspect of the two ears. Ear diameter was measured as a parameter for edema formation, before and hourly for 6 hours after benzalkonium chloride application, using an electronic caliper. The last measurement was performed at 8-hours after dermatitis induction.
(§1) The tested compounds were applied topically dissolved in ethanol:sterile water (1:1) and applied at a final volume of 100 μl, five minutes after irritant contact dermatitis will be induced.
Ear edema (left ears) value for times 1 to 4 hours after irritant stimuli with benzalkonium chloride are represented in the table 3.

Test [2] has as its system dermal microvasculature, leukocyte/endothelial cells interaction. Nature of the test: Intravital microscopy of skin flap in mice (vessel diameter, rolling leukocytes). Type of test: in vivo, C57B16 male mice. The following applies: 3 nmol topical. On the set-up: unit not given here. Here is the method:
C57B16 male mice will be anaesthetized by intraperitoneal injection of a mixture of 10 mg/kg xylazine (MTC Pharmaceuticals, Cambridge, Ontario, Canada) and 200 mg/kg ketamine hydrochloride (Rogar/STB, London, Ontario, Canada). […] Therefore, after anaesthesia, mice will receive an intravenous injection of a fluorescent dye, rhodamine 6G (Sigma, St. Louis, Mo., USA, 0.3 mg/kg). […] Then, a midline abdominal incision will be performed, from the diaphragm, extending to the pelvic region. The skin will carefully be separated from the underlying tissue, but remained attached laterally, so the blood supply to the skin flap remained intact. The skin flap will be extended over a viewing pedestal to expose the dermal microvasculature and secured along the edges using 4.0 sutures. The exposed dermal tissues will be superfused with a bicarbonate-buffered saline pH 7.4, to avoid tissue dehydration. The microcirculation will be observed using an inverted microscope (Nikon) with a ×20 objective lens, and rhodamine 6G allows visualization and quantification of the number of rolling and adherent leukocytes, by epi-illumination at 510-560 nm, using a 590-nm emission filter. Single unbranched venules (20-40 μm in diameter) will be selected for the study. Images of the selected venule will be recorded for […], after a 15-min equilibration period and the end of this 5-min interval was considered as time 0. Leukocyte adherence will be determined upon video playback, on 100 μm vessel length (table 4). A leukocyte will be considered adherent to the endothelium if it remained stationary for 30 s or more. Leukocyte flux will be defined as the number of leukocytes per minute moving at a velocity less than that of erythrocytes, which passed a reference point in the venule. The changes in flux of rolling leukocytes will be evaluated as differences between the number of rolling leukocytes at each interval and the basal number of rolling leukocytes (table 5).
as §1

The next test relates to TPA-induced ear oedema. Put plainly: Inhibition of TPA-induced ear oedema after topical administration. Particulars: TPA 2 μg/ear, topical 20 μL of 0.39 nM solution in ethanol 15 min before TPA, ear weight change; for % inhibition 3 hours post-treatment: 3 h post TPA; for % inhibition 5 hours post-treatment: 5 h post TPA. Type of test: in vivo, male Swiss mice. An excerpt: The tested compounds are: • (11β,16α)-9-fluoro-11-hydroxy-16,17-[1-methylethylidene bis(oxy)]-21-[1-oxo-[4-(nitrooxymethyl)benzoxy]]pregna-1,4-diene-3,20-dione, prepared as described in example 1; • Triamcinolone acetonide that is the reference compound for the compound of example 1; • (11β)-17-[(ethoxycarbonyl)oxy]-11-hydroxy-21-[1-oxo-[4-(nitrooxy methyl)benzoxy]]pregna-1,4-diene-3,20-dione, prepared as described in example 2; • Prednicarbate that is the reference compound for the compound of example 2; The tests were performed according to the methods described by Carlson et al., Agents Actions 17:197-204, 1985, and Lucas et al., J Pharmacol Exp Ther 304:1172-1180, 2003.
Groups of 5-9 male Swiss mice of 27±5 g were used. Inflammation dermatitis was induced by applying 2 μg/ear of TPA (Tetradecanoyl Phorbol Acetate) dissolved with ethanol absolute on the surface of either the dorsal aspect of both ears (20 μL/ear).
15 min before the application of TPA, mice received topically 20 μL of a solution of test compounds (0.39 nM in ethanol) per site applied directly on the skin of the left ear and the vehicle (ethanol 100%) on right ear. Vehicle-Vehicle treated mice were included as negative control group. Compounds were tested at equimolecular doses.
Animals were sacrificed at 3 h or 5 h post TPA dose. Equal sections of both ears were punched out immediately after and weighed. The percentage of change of the weight of left ear versus the weight of right ear was calculated for each animal, and the percentage of inhibition of change in weight of treated animals versus the change in weight of non-treated animals (negative control) was measured.

The next test concerns PGE2. Nature of the test: TPA-induced increase of PGE2 in mouse ear. In kind it is in vivo, Swiss male mice. The following applies: for PGE2: ear homogenate, Mean ± S.E.M. (n = 10). As to the method: (§2) A ear section of the right ear of mice were homogenized in 500 μl saline, and after centrifugation at 1,200 g for 15 min at 4° C., the PGE2 and TNF-α levels were determined by radioimmunoassay (Hoult et al., Methods Enzymol 1994) or by time-resolved fluoroimmunoassay ([…] et al., Int J. Immunopharmacol. 1995), respectively. Test compounds dissolved in the vehicle were applied topically 15 min before TPA administration.

A further test concerns TNF-α. Put plainly: TPA-induced increase of TNF-α in mouse ear. In kind it is in vivo, Swiss male mice. The following applies: for TNFalpha: ear homogenate, Mean ± S.E.M. (n = 10). As to the method: as §2
Setting [3] is: 3 nmol topical, 1 hour after benzalkonium application.
Where [4] appears, read: 3 nmol topical, 2 hours after benzalkonium application.
Where [5] appears, read: 3 nmol topical, 3 hours after benzalkonium application.
[6] abbreviates: 3 nmol topical, 4 hours after benzalkonium application.
Where [7] appears, read: 1 μg/ear topical 15 min before TPA.
[8] abbreviates: 0.48 μg/ear topical 15 min before TPA.

On to `CCOC(=O)O[C@]1(C(=O)COC(=O)c2ccc(CO[N+](=O)[O-])cc2)CC[C@H]2[C@@H]3CCC4=CC(=O)C=C[C@]4(C)[C@H]3[C@@H](O)C[C@@]21C` [Example 2, (11β)-17-[(ethoxycarbonyl)oxy]-11-hydroxy-21-[1-oxo-[4-(nitrooxymethyl)benzoxy]]pregna-1,4-diene-3,20-dione], for which the “Ear edema (left ears) value” in test [1] (setting [3]) turned out to be 0.025 ± 0.008; in test [1] (setting [4]), 0.028 ± 0.009; in test [1] (setting [5]), 0.040 ± 0.009; in test [1] (setting [6]), 0.061 ± 0.007. In addition, in test [2], the “Area under the curve (change in flux of rolling leucocytes)” value is given as 300 ± 75. In addition, the “Area under the curve (change in vessel diameter)” value in test [2] came out at 175 ± 70. In the test with TPA-induced ear oedema, the “% inhibition 3 hours post-treatment” value is reported as 33.26%.

Consider `CC1(C)O[C@@H]2C[C@H]3[C@@H]4CCC5=CC(=O)C=C[C@]5(C)[C@@]4(F)[C@@H](O)C[C@]3(C)[C@]2(C(=O)CO)O1` [Triamcinolone acetonide, reference compound], for which the “Ear edema (left ears) value” in test [1] (setting [3]) was found to be 0.037 ± 0.005; in test [1] (setting [4]), 0.063 ± 0.010; in test [1] (setting [5]), 0.041 ± 0.018; in test [1] (setting [6]), 0.068 ± 0.022. This compound displayed a PGE2 in the test with PGE2 (setting [7]) of 43.0 ± 3.8 ng/mL. Also, in test [2], the “Area under the curve (change in flux of rolling leucocytes)” value is 376 ± 129. Besides, in test [2], the “Area under the curve (change in vessel diameter)” value is 278 ± 78. This compound yielded a TNFalpha with TNF-α (setting [7]) of 158.0 ± 24.6 pg/mL. Besides, in the test on TPA-induced ear oedema, the “% inhibition 3 hours post-treatment” value is listed as 14.90%. Moreover, in the test with TPA-induced ear oedema, the “% inhibition 5 hours post-treatment” value amounted to 12.19%.

Regarding `CCOC(=O)O[C@]1(C(=O)COC(=O)CC)CC[C@H]2[C@@H]3CCC4=CC(=O)C=C[C@]4(C)[C@H]3[C@@H](O)C[C@@]21C` [Prednicarbate, reference compound], in test [2], the “Area under the curve (change in flux of rolling leucocytes)” value was 412 ± 112 and the “Area under the curve (change in vessel diameter)” value turned out to be 282 ± 71. Moreover, in the test with TPA-induced ear oedema, the “% inhibition 3 hours post-treatment” value was 19.58%.

With `CC1(C)O[C@@H]2C[C@H]3C4CCC5=CC(=O)C=C[C@]5(C)[C@@]4(F)[C@@H](O)C[C@]3(C)[C@]2(C(=O)COC(=O)c2ccc(CO[N+](=O)[O-])cc2)O1` (stereo partly drawn) [Example 1, (11β,16α)-9-fluoro-11-hydroxy-16,17-[1-methylethylidenebis(oxy)]-21-[1-oxo-[4-(nitrooxymethyl)benzoxy]]pregna-1,4-diene-3,20-dione], the “Ear edema (left ears) value” is listed as 0.026 ± 0.005 in test [1] (0.3 nmol topical, 1 hour after benzalkonium application); 0.035 ± 0.008 in test [1] (0.3 nmol topical, 2 hours after benzalkonium application); 0.053 ± 0.009 in test [1] (0.3 nmol topical, 3 hours after benzalkonium application); 0.047 ± 0.007 in test [1] (0.3 nmol topical, 4 hours after benzalkonium application); 0.020 ± 0.006 in test [1] (1 nmol topical, 1 hour after benzalkonium application); 0.035 ± 0.008 in test [1] (1 nmol topical, 2 hours after benzalkonium application). Also, the “Ear edema (left ears) value” was 0.057 ± 0.011 in test [1] (1 nmol topical, 3 hours after benzalkonium application); 0.065 ± 0.010 in test [1] (1 nmol topical, 4 hours after benzalkonium application); 0.018 ± 0.004 in test [1] (setting [3]); 0.042 ± 0.007 in test [1] (setting [4]); 0.042 ± 0.010 in test [1] (setting [5]); 0.070 ± 0.007 in test [1] (setting [6]). Besides, in test [1] (compared with triamcinolone acetonide, mainly at earlier times), the “Inhibition of ear edema, result in words” value is “dose-dependent effect in inhibiting ear edema with a better profile than triamcinolone acetonide”. This compound also registered a PGE2 in the test with PGE2 (setting [8]) of 53.2 ± 4.5 ng/mL. Moreover, the “Reduction of PGE2 level / inflammation, result in words” value with PGE2 (low dose versus higher dose of the parent compound) is “more effective in reducing the inflammation than the correspondent parent compound”. In test [2], the “Area under the curve (change in flux of rolling leucocytes)” value is 247 ± 35. In addition, the “Area under the curve (change in vessel diameter)” value in test [2] was 114 ± 32. For the same compound, the TNFalpha in the test with TNF-α (setting [8]) turned out to be 149.5 ± 17.8 pg/mL. Also, the “Inhibition of TNF-α release, result in words” value with TNF-α (versus prior art compound) was “inhibits the release of TNF-α in a higher potency than the prior art compound”. In addition, the “% inhibition 3 hours post-treatment” value with TPA-induced ear oedema is on record as 22.70%. The “% inhibition 5 hours post-treatment” value with TPA-induced ear oedema worked out at 21.01%.
